Assay results reported in US11958842B2, “Substituted phenazines and methods of treating cancer and bacterial diseases” (Adjutec Pharma AS, priority 2016, dated 2024).
Where two headings read alike, the source gives them in different places.

How the values were obtained:
Assay type in all cases: cell-based
[1] = tested on: human acute myeloid leukemia cell line MOLM-13; test: Cytotoxicity, WST-1 and nuclear morphology (Example 73)
Protocol: (§1) All cell culturing media and serum were from Sigma-Aldrich (St. Louis, Mo., USA). Product Nos. are given in parentheses. The human acute myeloid leukemia cell line MOLM-13 was cultured in RPMI medium (R5886) enriched with […] (F7524) and 0.2 mM L-glutamine (G7513). The normal rat kidney epithelial (NRK) and the rat cardiomyoblast (H9c2) cells were cultured in DMEM medium (D6429) enriched with 10% fetal bovine serum (F7524). All cell lines were additionally supplemented with 100 IU/mL penicillin and […] (P0781). The cells were cultured in a humidified atmosphere either under 2% or 20% O2 at 37° C.
(§2) All analogues were dissolved in DMSO (D5879, Sigma-Aldrich) at concentrations between 2.5 and 20 mM before testing. For cytotoxic testing, the MOLM-13 cells were seeded as 20,000 cells/well, while NRK and H9c2 cells were seeded as 5,000 cells/well in 96-well Microplates (#167008, Thermo Scientific™ Nunc™ MicroWell™) with 100 μL medium/well. The cells were exposed to various concentrations of iodinin or its analogues for 24 hrs before the cell proliferation reagent WST-1 was used to assess the viability, in accordance with the manufacturer's instructions (11644807001, Roche Diagnostics, Sigma-Aldrich). The cells were next fixed in 2% buffered formaldehyde (pH 7.4) with the DNA-specific dye Hoechst 33342 (Polysciences Inc.) and assessed for cell death by UV-microscopy based on nuclear morphology. The highest concentration of analogue corresponded to 1% of DMSO, which alone gave less than 7% cell death as judged by nuclear morphology.
(§3) EC50 values were determined by analyses of WST-1 signal results as well as microscopic evaluation of cell death by four-parameter regression analyses using the SigmaPlot software (Systat Software inc. San Jose, Calif.):
(§4) [formula] where Y is the response (WST-1 signal or percent apoptosis), min and max are minimum and maximum response, X is concentration of analogue, EC50 equals the point of inflection, i.e. the point that gives half of maximum response, and h is the Hill's slope of the curve. The two methods gave consistent response curves for each analogue. In the case of Tirapazamine, where its colour interfered with the WST-1 signal, only microscopic evaluation of Hoechst stained cells was used in order to calculate its EC50 values.

Molm13 cells = test: Anti-AML activity, WST-1 viability (Example 72); conditions: Homo sapiens
Protocol: Dry powder of analogs were dissolved in DMSO. IPC-18 rat AML cells (Lacaze, N. et al. Leuk. Res. 1983, 7, 145.) were cultured in DMEM medium (Sigma-Aldrich, St. Louis, Mo., USA) supplemented with 10% horse serum (Invitrogen, Carlsbad, Calif., USA), and antibiotics (50 U/mL of penicillin and 0.05 mg/mL streptomycin). Molm13 (Matsuo, Y. et al. Leukemia 1997, 11, 1469.) cells were cultured in RPMI supplemented with antibiotics (50 U/mL of penicillin and 0.05 mg/mL streptomycin) and 10% fetal bovine serum (FBS, Invitrogen, Carlsbad, Calif.) and kept in exponential growth before the experiments. Dilution series of iodinin analogs were added to medium and cell suspension added to reach a final cell concentration of 150 000 cells/ml in 0.1 mL in a 96 well tissue culture plate. […] The cells were incubated with the iodinin analogs for 22 h before WST-1 was added according to the manufacturers protocol, and the cells incubated further in 2 h. Mitochondrial conversion of WST-1 to its colored metabolite was measured by a plate reader at 450 nm, with 620 nm as the reference wavelength. The cells were next fixed by adding 4% buffered formaldehyde (PBS, pH 7.4, supplemented with 0.01 mg/mL Hoechst 33342 for nuclear visualization) to the cell suspension at 1:1 (v/v) ratio (final concentration of formaldehyde:[…]). The cells' nuclear and surface morphology were examined microscopically and results compared with the WST-1 viability assay. The results given in Table I are based on WST-1 data.

[2] = tested on: normal rat kidney epithelial (NRK) cells; test: Cytotoxicity, WST-1 and nuclear morphology (Example 73)
Protocol: as §1, §2, §3, §4

[3] = tested on: rat cardiomyoblast (H9c2) cells; test: as above; conditions: read-out: EC50 (μM) H9c2 19% O2
Protocol: as §1, §2, §3, §4

[4] = Homo sapiens, MOLM-13, 2% O2, 24 hours of incubation, read-out: EC50 (μM) MOLM-13 2% O2
[5] = Homo sapiens, MOLM-13, 19% O2, 24 hours of incubation, read-out: EC50 (μM) MOLM-13 19% O2
[6] = Molm 13 cells, 2% O2, 24 h of incubation, WST-1, read-out: Molm 13 IC50 2% O2
[7] = Molm 13 cells, 20% O2, 24 h of incubation, WST-1, read-out: Molm 13 IC50 20% O2
[8] = Rattus norvegicus, 2% O2, 24 hours of incubation, read-out: EC50 (μM) NRK 2% O2
[9] = Rattus norvegicus, 19% O2, 24 hours of incubation, read-out: EC50 (μM) NRK 19% O2
[10] = Rattus norvegicus, H9c2, 19% O2, 24 hours of incubation
[11] = Homo sapiens, MOLM-13, 24 h, read-out: EC50 (μM) MOLM-13 2% O2
[12] = Homo sapiens, MOLM-13, 24 h, read-out: EC50 (μM) MOLM-13 19% O2
[13] = MOLM-13, 2% O2, 24 hours of incubation, read-out: EC50 (μM) MOLM-13 2% O2
[14] = MOLM-13, 19% O2, 24 hours of incubation, read-out: EC50 (μM) MOLM-13 19% O2
[15] = Rattus norvegicus, 24 h, read-out: EC50 (μM) NRK 2% O2, NRK, 2% O2, 24 hours of incubation
[16] = Rattus norvegicus, 24 h, read-out: EC50 (μM) NRK 19% O2, NRK, 19% O2, 24 hours of incubation
[17] = H9c2, 19% O2, 24 hours of incubation

Structure (SMILES)	EC50 [1, 4]	EC50 [1, 5]	EC50 [2, 8]	EC50 [2, 9]	EC50 [3, 10]	other results
COc1cccc2nc3c(OC)cccc3nc12 [Example 1a, 1,6-dimethoxyphenazine]	84 ± 6 µM	72 ± 14 µM				IC50 (Molm13 cells; [6]): > 10 µM; IC50 (Molm13 cells; [7]): > 10 µM
[O-][n+]1c2ccccc2[n+]([O-])c2c(O)cccc21 [Example 4a, 1-hydroxyphenazine 5,10-dioxide]						IC50 (Molm13 cells; [7]): 4.5 µM
CC(=O)Oc1cccc2c1[n+]([O-])c1cccc(O)c1[n+]2[O-] [Example 5d, 1-Acetoxy-6-hydroxyphenazine 5,10-dioxide]						IC50 (Molm13 cells; [6]): 5.61 µM; IC50 (Molm13 cells; [7]): 5.62 µM
CCOC(=O)COc1cccc2c1[n+]([O-])c1cc(C)c(C)cc1[n+]2[O-] [Example 6b, 1-(2-ethoxy-2-oxoethoxy)-7,8-dimethylphenazine 5,10-dioxide]	6.3 ± 0.25 µM	8.3 ± 0.78 µM	> 100 µM	140 ± 2 µM	> 100 µM	
CN1CCN(C(=O)Oc2cccc3c2[n+]([O-])c2cc(Br)c(Br)cc2[n+]3[O-])CC1 [Example 8g, 7,8-dibromo-1-((4-methylpiperazine-1-carbonyl)oxy)phenazine 5,10-dioxide]						EC50 [1, 11]: 0.7 ± 0.04 µM; EC50 [1, 12]: 0.89 ± 0.03 µM; EC50 ([2]; read-out: EC50 (μM) NRK 2% O2, 2% O2, 24 hours of incubation): 62 ± 1.3 µM; EC50 ([2]; read-out: EC50 (μM) NRK 19% O2, 19% O2, 24 hours of incubation): 49 ± 1.8 µM; EC50 ([3]; Rattus norvegicus, H9c2, 24 h): 64 ± 9.2 µM
O=C(Oc1cccc2c1[n+]([O-])c1cccc(O)c1[n+]2[O-])N1CCCC1 [Example 8j, 1-hydroxy-6-((pyrrolidine-1-carbonyl)oxy)phenazine 5,10-dioxide]						EC50 [1, 13]: 0.79 ± 0.09 µM; EC50 [1, 14]: 0.86 ± 0.05 µM; EC50 [2, 15]: 15 ± 1 µM; EC50 [2, 16]: 9.6 ± 0.38 µM; EC50 [3, 17]: 12 ± 0.7 µM
Cc1c(C)[n+](O)c2c(O)cccc2[n+]1[O-] [Example 12, 5-hydroxy-2,3-dimethylquinoxaline 1,4-dioxide]	> 200 µM	> 200 µM				
Cc1c(C)[n+]([O-])c2c(OC(=O)N3CCN(C)CC3)cccc2[n+]1[O-] [Example 13, 2,3-dimethyl-5-((4-methylpiperazine-1-carbonyl)oxy)quinoxaline 1,4-dioxide]						EC50 [1, 13]: > 200 µM; EC50 [1, 14]: > 200 µM
O=C(Oc1cccc2c1[n+]([O-])c1cccc(OC(=O)N3CCCC3)c1[n+]2[O-])N1CCCC1 [Example 16a, 1,6-bis((pyrrolidine-1-carbonyl)oxy)phenazine 5,10-dioxide]						IC50 (Molm13 cells; MOLM-13, 24 h, read-out: Molm 13 IC50 20% O2): 0.95 µM
[O-][n+]1c2ccccc2[n+]([O-])c2c(O)cccc21 [Example 17, 1-hydroxyphenazine 5,10-dioxide]	12 ± 0.04 µM	11 ± 1.8 µM	> 100 µM	79 ± 4.2 µM	> 100 µM	
CC(C)(C)OC(=O)COc1cccc2c1[n+]([O-])c1ccccc1[n+]2O [Example 19, 1-(2-(tert-butoxy)-2-oxoethoxy)phenazine 5,10-dioxide]	1.9 ± 0.11 µM	2.2 ± 0.09 µM	25 ± 1.9 µM	26 ± 0.7 µM	20 ± 2.1 µM	
CCN(CC)C(=O)COc1cccc2c1[n+]([O-])c1ccccc1[n+]2[O-] [Example 21, 1-(2-(diethylamino)-2-oxoethoxy)phenazine 5,10-dioxide]	1.4 ± 0.15 µM	1.2 ± 0.08 µM	16 ± 1 µM	13 ± 0.01 µM	23 ± 0.1 µM	
O=C(Oc1cccc2c1[n+]([O-])c1ccccc1[n+]2[O-])N1CCCC1 [Example 24, 1-((pyrrolidine-1-carbonyl)oxy)phenazine 5,10-dioxide]						EC50 [1, 13]: 1.2 ± 0.15 µM; EC50 [1, 14]: 1.5 ± 0.18 µM; EC50 [2, 15]: 21 ± 2.4 µM; EC50 [2, 16]: 18 ± 0.6 µM; EC50 [3, 17]: 13 ± 0.5 µM
CC(C)(C)OC(=O)COc1cccc2c1[n+]([O-])c1cccc(OCC(=O)OC(C)(C)C)c1[n+]2[O-] [Example 36, 1,6-bis(2-(tert-butoxy)-2-oxoethoxy)phenazine 5,10-dioxide]	3.3 ± 0.22 µM	4.2 ± 0.2 µM	27 ± 1.8 µM	27 ± 1.2 µM		
O=C(O)COc1cccc2c1[n+]([O-])c1cccc(OCC(=O)O)c1[n+]2[O-] [Example 37, 1,6-bis(carboxymethoxy)phenazine 5,10-dioxide]	39 ± 9 µM	18 ± 3 µM	> 200 µM	> 200 µM		
Cc1cc2c(cc1C)[n+]([O-])c1c(O)cccc1[n+]2[O-] [Example 48, 1-hydroxy-7,8-dimethylphenazine 5,10-dioxide]	2.3 ± 0.1 µM	2.8 ± 0.25 µM	> 50 µM	> 50 µM	> 50 µM	
[O-][n+]1c2ccccc2[n+]([O-])c2cc(O)ccc21 [Example 60, 2-hydroxyphenazine 5,10-dioxide]	45 ± 3.5 µM	128 ± 3 µM			> 200 µM	
CCOC(=O)COc1ccc2c(c1)[n+](O)c1ccccc1[n+]2O [Example 62, 2-(2-ethoxy-2-oxoethoxy)phenazine 5,10-dioxide]	15 ± 0.7 µM	32 ± 5 µM			45 ± 4.8 µM	
CN1CCN(C(=O)Oc2ccc3c(c2)[n+](O)c2ccccc2[n+]3O)CC1 [Example 63, 2-((4-methylpiperazine-1-carbonyl)oxy)phenazine 5,10-dioxide]						EC50 [1, 11]: 3.5 ± 0.19 µM; EC50 [1, 12]: 14 ± 0.4 µM; EC50 ([3]; Rattus norvegicus, H9c2, 24 h): 53 ± 0.3 µM
Cc1cc2c(cc1C)[n+]([O-])c1cc(O)ccc1[n+]2[O-] [Example 64, 7-hydroxy-2,3-dimethylphenazine 5,10-dioxide]	50 ± 3.8 µM	117 ± 1 µM			> 200 µM	
Cc1cc2c(cc1C)[n+](O)c1cc(OC(=O)N3CCN(C)CC3)ccc1[n+]2[O-] [Example 65, 2,3-dimethyl-7-((4-methylpiperazine-1-carbonyl)oxy)phenazine 5,10-dioxide]						EC50 [1, 11]: 2.5 ± 0.24 µM; EC50 [1, 12]: 17 µM; EC50 ([3]; Rattus norvegicus, H9c2, 24 h): 20 ± 2.4 µM
Nc1ccc2c(c1)[n+](O)c1ccccc1[n+]2[O-] [Example 67, 2-aminophenazine 5,10-dioxide]	7.6 ± 0.89 µM	31 ± 1.4 µM			80 ± 8.9 µM	
Cc1c(C)[n+]([O-])c2c(OC(=O)N3CCOCC3)cccc2[n+]1[O-] [Example 69, 2,3-dimethyl-5-((morpholine-4-carbonyl)oxy)quinoxaline 1,4-dioxide]						EC50 [1, 13]: > 200 µM; EC50 [1, 14]: > 200 µM
